Laboratory results reported in US9730935B2, “Targeting a non-canonical notch signaling pathway for cancer treatment” (The Board of Trustees of the Leland Stanford Junior …, priority 2013, dated 2017).

Tests used:
[1] = system: Drosophila larval brain NBs (N-induced NB expansion); test: Pharmacological treatment of N-GOF larvae: ectopic NB formation in larval brain; type: in vivo; settings: Mdivi-1 5 μM in food, 0.5% DMSO vehicle control, larval brains at 120 hr ALH, PntP1>N-V5
Method: Pharmacological treatment of larvae. Mdivi-1 (Enzo Life Science) dissolved in 0.5% DMSO was mixed in instant Drosophila media at 5 μM final concentration. 0.5% DMSO alone was used as vehicle control. Embryos were collected on Mdivi-1 containing food or control food for 6 hrs at 25° C. and allowed to develop further to 120 hr ALH before larval brain dissection and immunostaining.
Immunohistochemistry. For larval brain immunostaining, larvae were dissected in Schneider's medium (Invitrogen) and fixed with 4% formaldehyde in PEM buffer (100 mM PIPES at pH 6.9, 1 mM EGTA, 1 mM MgCl2) for 23 min at room temperature. Immunohistochemistry of TH and mito-GFP in Drosophila brain was performed as described (Wu et al., 2013). […] For thoracic muscle mitochondrial morphology analysis, mito-GFP was expressed in thoracic muscle using the Mhc-Gal4 driver and indirect flight muscles were dissected in PBS and examined under fluorescence confocal microscope. […]

Drosophila muscle tissue = test: Western blot of mitochondrial fraction after CCCP treatment
Method: (§1) Co-Immunoprecipitation and Western blot analysis. Approximately 25 adult fly thoraces were collected and homogenized in HBS buffer (210 mM Mannitol, 70 mM Sucrose, 5 mM HEPES pH 7.4, 1 mM EGTA) containing protease inhibitor (Sigma). The lysate was centrifuged at 1,300 g for 10 min, and the supernatant was collected and centrifuged again at 13,000 g for 15 min. For co-IP, the cytosolic and the mitochondrial fractions were incubated with anti-GFP conjugated protein G-agarose beads (Upstate) at 4° C. for 2 hours. Beads were washed 3× with PBS for 5 min each. Proteins were eluted and analyzed by WB as described (Wu et al., 2013). For co-IP assays using human NSC and GBM cells, soluble extracts of isolated mitochondrial fractions were incubated with a mixture of anti-human PINK1 (Abcam) and protein G-agarose beads (Upstate). The primary antibodies used were: pS505-dAKT and AKT (Cell Signaling Technology), Actin (Millipore), NICD (DSHB), NDUFS3 (MitoScience), complex IV subunit I (MitoScience), Drp-1 (L. Pallanck), Calnexin (Novus), PDE1 (MitoScience), Tom20 (Santa Cruz), KDEL (Enzo Life Science), Rab5 (Abcam), Rab7 (Abcam), rat anti-hNotch1 (1:200; DSBH). Rabbit anti-dPINK1 was generated as described (Yang et al., 2006).
(§2) Mitochondria purification. Intact mitochondria from fly heads, fly thoraces and cultured cells were purified at described previously (Wu et al., 2013). […]

HEK 293T cells = test: as above; type: cell-based, human
Method: as §1, §2

Row | SMILES | N-induced NB expansion / ectopic NB formation and brain tumor formation [1] | amount of mitochondrial N (Drosophila muscle tissue) | mitochondrial PINK1 level (Drosophila muscle tissue) | amount of mitochondrial N (HEK 293T cells) | mitochondrial PINK1 level (HEK 293T cells)
1 | COc1cc(-n2c(=S)[nH]c3ccccc3c2=O)c(Cl)cc1Cl [Mdivi-1] | attenuated |  |  |  | 
2 | N#CC(C#N)=NNc1cccc(Cl)c1 [CCCP] |  | not affected | increased | not affected | increased
